From patent US20250154109A1, “SODIUM CHANNEL BLOCKING COMPOUNDS, DERIVATIVES THEREOF, AND METHODS OF THEIR USE” (LATIGO BIOTHERAPEUTICS, INC, priority 2022, published 2025)
Where a name gives a salt, the structure may show the parent alone. Read-outs that look alike come from different tables or passages of the source.

Biological target: human Nav1.8 (Homo sapiens, UniProt Q9Y5Y9)
Assay: SyncroPatch384PE assay (automated patch clamp)
Format: cell-based
Conditions: human Nav1.8/b3 CHO cells
[1] = inactivated state block (P2 measurement), read-out: P2 IC50
[2] = resting state block (P1 measurement), read-out: P1 IC50

Sequence of human Nav1.8 (Q9Y5Y9 whole entry): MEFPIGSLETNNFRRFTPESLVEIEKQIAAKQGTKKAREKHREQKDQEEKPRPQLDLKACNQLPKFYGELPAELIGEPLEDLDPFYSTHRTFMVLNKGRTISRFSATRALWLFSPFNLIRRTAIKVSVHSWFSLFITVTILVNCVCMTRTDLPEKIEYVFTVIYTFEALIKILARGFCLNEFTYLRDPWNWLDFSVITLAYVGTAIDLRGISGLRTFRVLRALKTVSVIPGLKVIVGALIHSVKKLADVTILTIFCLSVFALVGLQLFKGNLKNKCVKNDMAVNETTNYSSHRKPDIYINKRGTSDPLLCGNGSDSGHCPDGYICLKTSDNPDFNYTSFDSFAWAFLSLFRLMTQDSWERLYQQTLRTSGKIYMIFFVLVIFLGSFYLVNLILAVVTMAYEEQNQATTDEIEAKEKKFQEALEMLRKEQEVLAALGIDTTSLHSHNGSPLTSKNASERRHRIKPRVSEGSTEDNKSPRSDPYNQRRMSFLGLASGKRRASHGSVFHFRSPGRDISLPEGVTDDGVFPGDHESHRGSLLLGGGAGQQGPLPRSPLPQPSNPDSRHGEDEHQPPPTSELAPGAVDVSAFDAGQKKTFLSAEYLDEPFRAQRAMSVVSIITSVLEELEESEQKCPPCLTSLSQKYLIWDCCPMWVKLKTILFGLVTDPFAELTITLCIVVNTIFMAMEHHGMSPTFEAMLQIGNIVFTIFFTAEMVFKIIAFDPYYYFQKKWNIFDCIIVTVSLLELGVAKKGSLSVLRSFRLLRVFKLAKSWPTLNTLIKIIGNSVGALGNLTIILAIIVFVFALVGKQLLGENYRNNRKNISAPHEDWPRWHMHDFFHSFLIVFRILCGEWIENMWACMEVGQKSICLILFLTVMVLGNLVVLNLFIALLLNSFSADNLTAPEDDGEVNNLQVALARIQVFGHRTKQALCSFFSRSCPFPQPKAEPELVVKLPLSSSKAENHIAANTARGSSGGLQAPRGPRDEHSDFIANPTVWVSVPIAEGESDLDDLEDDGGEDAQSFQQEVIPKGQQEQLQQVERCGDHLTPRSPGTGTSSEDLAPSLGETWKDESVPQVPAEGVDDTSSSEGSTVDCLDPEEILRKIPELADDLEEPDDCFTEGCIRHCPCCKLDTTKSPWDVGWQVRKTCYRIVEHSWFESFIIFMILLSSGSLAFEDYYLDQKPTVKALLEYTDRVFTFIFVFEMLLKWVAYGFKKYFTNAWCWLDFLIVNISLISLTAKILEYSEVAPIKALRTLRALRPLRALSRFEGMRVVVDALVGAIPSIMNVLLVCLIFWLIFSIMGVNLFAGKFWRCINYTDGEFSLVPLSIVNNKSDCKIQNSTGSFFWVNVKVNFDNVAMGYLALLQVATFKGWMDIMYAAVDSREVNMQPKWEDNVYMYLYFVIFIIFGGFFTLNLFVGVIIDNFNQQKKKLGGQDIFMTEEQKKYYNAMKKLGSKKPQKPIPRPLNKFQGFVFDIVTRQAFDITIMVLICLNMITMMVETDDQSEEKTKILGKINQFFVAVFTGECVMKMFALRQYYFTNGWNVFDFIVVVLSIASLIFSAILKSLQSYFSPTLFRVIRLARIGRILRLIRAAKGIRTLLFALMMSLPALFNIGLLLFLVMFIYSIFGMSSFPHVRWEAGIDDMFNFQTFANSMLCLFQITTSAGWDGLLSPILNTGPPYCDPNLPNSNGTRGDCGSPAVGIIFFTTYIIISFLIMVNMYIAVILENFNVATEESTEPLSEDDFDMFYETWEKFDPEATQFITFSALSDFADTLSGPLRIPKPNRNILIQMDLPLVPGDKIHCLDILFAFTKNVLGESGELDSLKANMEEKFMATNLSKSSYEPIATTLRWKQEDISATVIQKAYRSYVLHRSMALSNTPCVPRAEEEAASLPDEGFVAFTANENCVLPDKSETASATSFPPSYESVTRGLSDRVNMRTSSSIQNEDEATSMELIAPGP

IC50 [1] [nM] | IC50 [2] [nM] | Structure (SMILES)
> 200 | > 200 | Cc1c(C(F)(F)F)nnc(N2CCCC(F)(F)CC2)c1C(=O)Nc1ccnnc1 [Example 31, 3-(4,4-Difluoroazepan-1-yl)-5-methyl-N-(pyridazin-4-yl)-6-(trifluoromethyl)pyridazine-4-carboxamide]
≤ 5 | ≤ 5 | CNCC(=O)N=[S@](C)(=O)c1cccc(NC(=O)c2c(N3CCCC(F)(F)CC3)ncc(C(F)(F)F)c2C)c1 [Example 194, (R)-2-(4,4-difluoroazepan-1-yl)-4-methyl-N-(3-(S-methyl-N-(methylglycyl)sulfonimidoyl)phenyl)-5-(trifluoromethyl)nicotinamide]
100 to 200 | > 200 | C[S@](=N)(=O)c1cccc(NC(=O)c2cc(C(F)(F)F)nnc2N2CCCC(F)(F)CC2)c1 [Example 19, (S)-3-(4,4-difluoroazepan-1-yl)-N-(3-(S-methylsulfonimidoyl)phenyl)-6-(trifluoromethyl)pyridazine-4-carboxamide]
≤ 5 | ≤ 5 | Cc1c(Cl)cnc(N2CCCC(F)(F)CC2)c1C(=O)Nc1cccc(S(C)(=N)=O)c1 (stereo not drawn) [Example 95, 5-chloro-2-(4,4-difluoroazepan-1-yl)-4-methyl-N-(3-(S-methylsulfonimidoyl)phenyl)nicotinamide]
≤ 5 | ≤ 5 | Cc1c(C#N)c(C(F)(F)F)nc(N2CCCC(F)(F)CC2)c1C(=O)Nc1cccc([S@@](C)(=O)=NC(=O)C2CNC2)c1 [Example 57, (R)-N-(3-(N-(azetidine-3-carbonyl)-S-methylsulfonimidoyl)phenyl)-5-cyano-2-(4,4-difluoroazepan-1-yl)-4-methyl-6-(trifluoromethyl)nicotinamide formate]
50 to 100 | 50 to 100 | Cc1c(C(F)(F)F)nnc(N2CCCCCC2)c1C(=O)Nc1cccc([S@](C)(=N)=O)c1 [Example 10, (R)-3-(azepan-1-yl)-5-methyl-N-(3-(S-methylsulfonimidoyl)phenyl)-6-(trifluoromethyl)pyridazine-4-carboxamide]
5 to 50 | 5 to 50 | Cc1cc(C#N)nc(N2CCCC(F)(F)CC2)c1C(=O)Nc1ccnc([S@](C)(=N)=O)c1 [Example 204, (R)-6-cyano-2-(4,4-difluoroazepan-1-yl)-4-methyl-N-(2-(S-methylsulfonimidoyl)pyridin-4-yl)nicotinamide]
≤ 5 | ≤ 5 | C[S@@+]([O-])c1cc(NC(=O)c2cc(Cl)c(C(F)(F)F)cc2N2CCCC(F)(F)CC2)ccc1F [Example 206, (R)-5-chloro-2-(4,4-difluoroazepan-1-yl)-N-(4-fluoro-3-(methylsulfinyl)phenyl)-4-(trifluoromethyl)benzamide]
≤ 5 | ≤ 5 | Cc1c(C(F)(F)F)nnc(N2CCCC(F)(F)CC2)c1C(=O)Nc1cccc([S@@](C)(=O)=NC(=O)[C@@H](C)O)c1 [Example 179, 3-(4,4-difluoroazepan-1-yl)-N-(3-((R)-N-((R)-2-hydroxypropanoyl)-S-methylsulfonimidoyl)phenyl)-5-methyl-6-(trifluoromethyl)pyridazine-4-carboxamide]
≤ 5 | ≤ 5 | Cc1c(C(F)(F)F)nnc(N2CCCC(F)(F)CC2)c1C(=O)Nc1cccc([S@@](C)(=O)=NC(=O)CO)c1 [Example 232, (R)-3-(4,4-difluoroazepan-1-yl)-N-(3-(N-(2-hydroxyacetyl)-S-methylsulfonimidoyl)phenyl)-5-methyl-6-(trifluoromethyl)pyridazine-4-carboxamide]
≤ 5 | ≤ 5 | C=CCCc1ccc(C(=O)Nc2cccc([S@](C)(=N)=O)c2)c(N2CCCC(F)(F)CC2)n1 [Example 35, (R)-6-(But-3-en-1-yl)-2-(4,4-difluoroazepan-1-yl)-N-(3-(S-methylsulfonimidoyl)phenyl)nicotinamide]
100 to 200 | > 200 | Cc1c(C2CNC2)cnc(N2CCCC(F)(F)CC2)c1C(=O)Nc1cccc(S(C)(=N)=O)c1 (stereo not drawn) [Example 173, 5-(azetidin-3-yl)-2-(4,4-difluoroazepan-1-yl)-4-methyl-N-(3-(S-methylsulfonimidoyl)phenyl)nicotinamide]
> 200 | > 200 | CS(=N)(=O)c1cccc(NC(=O)c2cc(C(F)(F)F)nnc2N2CCCCCC2)c1 (stereo not drawn) [Example 1, 3-(Azepan-1-yl)-N-(3-(S-methylsulfonimidoyl)phenyl)-6-(trifluoromethyl)pyridazine-4-carboxamide]
> 200 | > 200 | Cc1c(C(F)(F)F)nnc(N2CC3(COC3)C2)c1C(=O)Nc1cccc(S(C)(=N)=O)c1 (stereo not drawn) [Example 100, 5-methyl-N-(3-(S-methylsulfonimidoyl)phenyl)-3-(2-oxa-6-azaspiro[3.3]heptan-6-yl)-6-(trifluoromethyl)pyridazine-4-carboxamide]
5 to 50 | 5 to 50 | Cc1c(C#N)c(C#N)nc(N2CCCC(F)(F)CC2)c1C(=O)Nc1cccc([S@](C)(=N)=O)c1 [Example 170, (R)-5,6-dicyano-2-(4,4-difluoroazepan-1-yl)-4-methyl-N-(3-(S-methylsulfonimidoyl)phenyl)nicotinamide]
5 to 50 | 5 to 50 | Cc1cc(C#N)nc(N2CCCC(F)(F)CC2)c1C(=O)Nc1cccc([S@](C)(=N)=O)c1 [Example 148, (R)-6-cyano-2-(4,4-difluoroazepan-1-yl)-4-methyl-N-(3-(S-methylsulfonimidoyl)phenyl)nicotinamide]
≤ 5 | ≤ 5 | Cc1nc(N2CCCC(F)(F)CC2)c(C(=O)Nc2cccc([S@](C)(=N)=O)c2)cc1Cl [Example 16, (R)-5-chloro-2-(4,4-difluoroazepan-1-yl)-6-methyl-N-(3-(S-methylsulfonimidoyl)phenyl)nicotinamide]
≤ 5 | ≤ 5 | CNCC(=O)N=[S@](C)(=O)c1cccc(NC(=O)c2c(N3CCCC(F)(F)CC3)ncc(-c3cnn(C4CC4)c3)c2C)c1 [Example 70, (R)-5-(1-cyclopropyl-1H-pyrazol-4-yl)-2-(4,4-difluoroazepan-1-yl)-4-methyl-N-(3-(S-methyl-N-(methylglycyl)sulfonimidoyl)phenyl)nicotinamide]
50 to 100 | 50 to 100 | Cc1c(-c2ccc(F)cn2)cnc(N2CCCC(F)(F)CC2)c1C(=O)Nc1cccc(S(C)(=N)=O)c1 (stereo not drawn) [Example 112, 6(4,4-difluoroazepan-1-yl)-5-fluoro-4methyl-N-(3-(S-methylsulfonimidoyl)phenyl)-[2,3bipyridine]-5carboxamide]
5 to 50 | 50 to 100 | Cc1c(C#N)c(C(F)(F)F)nc(N2CCCC(F)(F)CC2)c1C(=O)Nc1cccc([S@@](C)(=O)=NC(=O)C2(N)CCC2)c1 [Example 73, (R)-N-(3-(N-(1-aminocyclobutane-1-carbonyl)-S-methylsulfonimidoyl)phenyl)-5-cyano-2-(4,4-difluoroazepan-1-yl)-4-methyl-6-(trifluoromethyl)nicotinamide]
50 to 100 | 50 to 100 | Cc1ccnc(N2CCCC(F)(F)CC2)c1C(=O)Nc1cccc(S(C)(=N)=O)c1 (stereo not drawn) [Example 105, 2-(4,4-difluoroazepan-1-yl)-4-methyl-N-(3-(S-methylsulfonimidoyl)phenyl)nicotinamide]
5 to 50 | 5 to 50 | Cc1c(-c2cccc(C#N)c2)cnc(N2CCCC(F)(F)CC2)c1C(=O)Nc1cccc(S(C)(=N)=O)c1 (stereo not drawn) [Example 91, 5-(3-cyanophenyl)-2-(4,4-difluoroazepan-1-yl)-4-methyl-N-(3-(S-methylsulfonimidoyl)phenyl)nicotinamide]
≤ 5 | ≤ 5 | Cc1nc(N2CCCC(F)(F)CC2)c(C(=O)Nc2cccc([S@](C)(=N)=O)c2)c(C)c1C(F)(F)F (single isomer, unassigned) [Example 186]
5 to 50 | 5 to 50 | Cc1c(C(F)(F)F)nnc(N2CCCC(F)(F)CC2)c1C(=O)Nc1cccc([S@](C)(=N)=O)c1 [Example 28, (R)-3-(4,4-Difluoroazepan-1-yl)-5-methyl-N-(3-(S-methylsulfonimidoyl)phenyl)-6-(trifluoromethyl)pyridazine-4-carboxamide]
≤ 5 | ≤ 5 | Cc1c(Br)cnc(N2CCCC(F)(F)CC2)c1C(=O)Nc1cccc([S@@](C)(=N)=O)c1 [Example 145, (S)-5-bromo-2-(4,4-difluoroazepan-1-yl)-4-methyl-N-(3-(S-methylsulfonimidoyl)phenyl)nicotinamide]
> 200 | > 200 | Cc1c(-c2cnn(C)c2)ccc(N2CCCC(F)(F)CC2)c1C(=O)Nc1cccc([S@](C)(=N)=O)c1 [Example 78, (R)-6-(4,4-difluoroazepan-1-yl)-2-methyl-3-(1-methyl-1H-pyrazol-4-yl)-N-(3-(S-methylsulfonimidoyl)phenyl)benzamide]
100 to 200 | 100 to 200 | Cc1c(C#CCN(C)C)cnc(N2CCCC(F)(F)CC2)c1C(=O)Nc1cccc([S@](C)(=N)=O)c1 [Example 124, (R)-2-(4,4-difluoroazepan-1-yl)-5-(3-(dimethylamino)prop-1-yn-1-yl)-4-methyl-N-(3-(S-methylsulfonimidoyl)phenyl)nicotinamide]
> 200 | > 200 | Cc1noc(C)c1-c1cnc(N2CCCC(F)(F)CC2)c(C(=O)Nc2cccc([S@](C)(=N)=O)c2)c1C [Example 156, (R)-2-(4,4-difluoroazepan-1-yl)-5-(3,5-dimethylisoxazol-4-yl)-4-methyl-N-(3-(S-methylsulfonimidoyl)phenyl)nicotinamide]
5 to 50 | 5 to 50 | CNCC(=O)N=[S@@](C)(=O)c1cccc(NC(=O)c2c(N3CCCC(F)(F)CC3)nnc(C(F)(F)F)c2C)c1 [Example 44, (S)-3-(4,4-difluoroazepan-1-yl)-5-methyl-N-(3-(S-methyl-N-(methylglycyl)sulfonimidoyl)phenyl)-6-(trifluoromethyl)pyridazine-4-carboxamide]
≤ 5 | ≤ 5 | C[S@@](=N)(=O)c1cc(NC(=O)c2cc(Cl)c(C(F)(F)F)cc2N2CCCC(F)(F)CC2)ccn1 [Example 199, (R)-5-chloro-2-(4,4-difluoroazepan-1-yl)-N-(2-(S-methylsulfonimidoyl)pyridin-4-yl)-4-(trifluoromethyl)benzamide]
